Measurements reported in patent US8273787B2, “Activated cytotoxic compounds for attachment to targeting molecules for the treatment of mammalian disease conditions” (Onconova Therapeutics, Inc, priority 2006, dated 2012).

Legend:
[1] = tested on: Various tumor cell lines (ATCC); assay: 96 hour growth inhibition, various tumor cell lines; type: cell-based; conditions: 96 hours exposure, viable cells vs vehicle; read-out: IC50 value range
Experimental: (§1) Two compounds were selected from our library of cytotoxic molecules for immunoconjugation since they both have IC50 values in the low nanomolar range. Various tumor cell lines (ATCC) were treated for 96 hours in the presence of increasing concentrations of each compound and the total number of viable cells remaining was determined after 96 hours of exposure. The IC50 value was determined to be the amount of drug required to inhibit the growth of each cell line 50% as compared to vehicle treated cells.

PC-3 = assay: 96 hour growth inhibition, PC-3; type: cell-based; conditions: Homo sapiens, PC-3, PROSTATE (AR−)
Experimental: as §1

OV-CAR-3 = assay: 96 hour growth inhibition, OV-CAR-3; type: cell-based; conditions: Homo sapiens, OVCAR-3, OV-CAR-3, OVARIAN
Experimental: as §1

MIA-PaCa2 = assay: 96 hour growth inhibition, MIA-PaCa2; type: cell-based; conditions: Homo sapiens, MIA PaCa-2
Experimental: as §1

U87 = assay: 96 hour growth inhibition, U87; type: cell-based; conditions: Homo sapiens, U-87 MG, U87, GLIOBLASTOMA
Experimental: as §1

A549 = assay: 96 hour growth inhibition, A549; type: cell-based; conditions: Homo sapiens, A549, NSCLC
Experimental: as §1

H187 = assay: 96 hour growth inhibition, H187; type: cell-based; conditions: Homo sapiens, NCI-H187, H187, SCLC
Experimental: as §1

N417 = assay: 96 hour growth inhibition, N417; type: cell-based; conditions: N417, SCLC
Experimental: as §1

RF1 = assay: 96 hour growth inhibition, RF1; type: cell-based; conditions: RF1, GASTRIC
Experimental: as §1

DLD-1 = assay: 96 hour growth inhibition, DLD-1; type: cell-based; conditions: Homo sapiens, DLD-1, COLO-RECTAL
Experimental: as §1

K562 = assay: 96 hour growth inhibition, K562; type: cell-based; conditions: Homo sapiens, K562, CML
Experimental: as §1

Namalwa = assay: 96 hour growth inhibition, Namalwa; type: cell-based; conditions: Burkitt's Lymphoma (B-cell)
Experimental: as §1

Daudi = assay: 96 hour growth inhibition, Daudi; type: cell-based; conditions: Homo sapiens, Burkitt's Lymphoma (B-cell)
Experimental: as §1

BT20 = assay: growth inhibition, breast carcinoma cell line BT20; type: cell-based; conditions: Homo sapiens, BT-20; BT20, BREAST (ER−), HER2 ++
Experimental: as §1
(§2) Certain embodiments of immunoconjugates described herein are targeted to HER2 expressing breast cancer cells. Certain embodiments of immunoconjugates described herein are targeted to multiple myeloma (MM) cell lines expressing the surface antigens CD38 and or CD138. The IC50 value of ON 015100 and ON 013100 was determined for a number of breast cell lines as well as a panel of multiple myeloma cell lines expressing varying levels of each antigen and the data are shown in table (4) and table (5), respectively. […] Two cell lines, SK-BR-3 and BT474, known to express very high levels of HER2 are more than 2 fold more sensitive to ON 013100 as compared to the cell lines which express lower levels of HER2. Marx C., et al., Validated High-Throughput Screening of Drug-Like Small Molecules for Inhibitors of ErbB2 Transcription. Assay Drug Dev. […]

T47D = assay: growth inhibition, breast carcinoma cell line T47D; type: cell-based; conditions: Homo sapiens, BREAST (ER+), HER2 +
Experimental: as §1, §2

MCF-7 = assay: growth inhibition, breast carcinoma cell line MCF-7; type: cell-based; conditions: Homo sapiens, MCF7; MCF-7, BREAST (ER+), HER2 +
Experimental: as §1, §2

SK-BR-3 = assay: growth inhibition, breast carcinoma cell line SK-BR-3; type: cell-based; conditions: Homo sapiens; SK-BR-3, BREAST (ER−), HER2 ++++
Experimental: as §1, §2

BT474 = assay: growth inhibition, breast carcinoma cell line BT474; type: cell-based; conditions: Homo sapiens, BT-474; BT474, BREAST (ER+), HER2 ++++
Experimental: as §1, §2

U266 = assay: growth inhibition, multiple myeloma cell line U266; type: cell-based; conditions: Homo sapiens, U-266, CD38 −/+ CD138 + CD20 −
Experimental: as §1
(§3) Pellat-Deceunynk, C., et al., Human Myeloma Cell Lines As A Tool For Studying The Biology Of Multiple Myeloma: A Reappraisal 18 Years After, Blood 86(10):4001-2 (1995); Gooding, R. P., et al., Phenotypic And Molecular Analysis Of Six Human Cell Lines Derived From Patients With Plasma Cell Dyscrasia, British Journal of Haematology 106:669-688 (1999).

NCI-H929 = assay: growth inhibition, multiple myeloma cell line NCI-H929; type: cell-based; conditions: Homo sapiens, CD38 + CD138 + CD20 −
Experimental: as §1, §3

MES-SA/Dx5 (RESISTANT) = assay: growth inhibition, MES-SA/Dx5 (resistant); type: cell-based, Human; conditions: for IC50: Homo sapiens, MES-SA/Dx5 (RESISTANT), uterine sarcoma, multidrug resistant; for RSIST-ANCE: MES-SA/Dx5 (RESISTANT) versus MES-SA (PARENTAL)
Experimental: as §1
(§4) Another extremely important predictive factor is the ability of these compounds to kill cell lines overexpressing multiple drug resistance (MDR) genes. A very high percentage of cancer patient relapses are due to some form of resistance to traditional chemotherapy. Of these patients, the vast majority express one or more of the MDR genes within the ABC transport gene family. Overexpression of these genes increases the efflux of compounds that are recognized by these pumping systems. […] Onconova's benzyl styryl sulfone compounds are not recognized by the MDR-1 gene and therefore provide an advantage over other highly toxic drugs including but not limited to the taxanes, doxorubicin, etoposide, and vinca-alkaloids. […] MES-SA/Dx5, uterine sarcoma, and […], ovarian, are both classical multidrug resistant cell lines that are cross resistant to the taxanes and anthracyclins. Harker, W G, and Sikic, B. I., Multidrug (Pleiotropic) Resistance In Doxorubicin-Selected Variants Of The Human Sarcoma Cell Line MES-SA, Cancer Res. 45(9):4091-6 (1985). MES-SA/Dx5 and Apr. […] Fujimori, A., et al., Mutation At The Catalytic Site Of Topoisomerase I In CEM/C2, A Human Leukemia Cell Line Resistant To Camptothecin, Cancer Res. 55(6): 1339-46 (1995). ON 01500 and ON 013100, for example, are both extremely active against these resistant cell lines.

CEM/C2 (RESISTANT) = assay: growth inhibition, CEM/C2 (resistant); type: cell-based, Human; conditions: for RSIST-ANCE: CEM/C2 (RESISTANT) versus CEM (PARENTAL); for IC50: Homo sapiens, CEM/C2 (RESISTANT), non classical multiple drug resistant
Experimental: as §1, §4

| Structure (SMILES) | IC50 [1] [nM] | IC50 (PC-3) [nM] | IC50 (OV-CAR-3) [nM] | IC50 (MIA-PaCa2) [nM] | IC50 (U87) [nM] | IC50 (A549) [nM] | IC50 (H187) [nM] | IC50 (N417) [nM] | IC50 (RF1) [nM] | IC50 (DLD-1) [nM] | IC50 (K562) [nM] | IC50 (Namalwa) [nM] | IC50 (Daudi) [nM] | IC50 (BT20) [nM] | IC50 (T47D) [nM] | IC50 (MCF-7) [nM] | IC50 (SK-BR-3) [nM] | IC50 (BT474) [nM] | IC50 (U266) [nM] | IC50 (NCI-H929) [nM] | also measured |
| --- | --- | --- | --- | --- | --- | --- | --- | --- | --- | --- | --- | --- | --- | --- | --- | --- | --- | --- | --- | --- | --- |
| COc1cc(OC)c(/C=C/S(=O)(=O)Cc2ccc(OC)c(N)c2)c(OC)c1 [ON 01500, (E)-2,4,6-trimethoxystyryl-4-methoxy-3-aminobenzylsulfone] | 3 to 5 | 6 | 3 | 3 | 3 | 3 | 4 | 3 | 2 | 6 | 2.5 | 5 | 3 | 4 | 3 | 1 | 2 | 2 | 3 | 0.8 | IC50 (MES-SA/Dx5 (RESISTANT)): 4 nM; RSIST-ANCE (MES-SA/Dx5 (RESISTANT)): 1; RSIST-ANCE (CEM/C2 (RESISTANT)): 1; IC50 (CEM/C2 (RESISTANT)): 10 nM |
| COc1cc(OC)c(/C=C/S(=O)(=O)Cc2ccc(OC)c(O)c2)c(OC)c1 [ON 013100, (E)-5-((2,4,6-trimethoxystyrylsulfonyl)methyl)-2-methoxyphenol] | 3 to 5 | 5 | 30 | 3 | 7 | 10 | 3 | 3 | 3 | 7 | 4 | 3 | 3 | 80 | 10 | 10 | 4 | 3 | 5 | 1 | IC50 (MES-SA/Dx5 (RESISTANT)): 5 nM; RSIST-ANCE (MES-SA/Dx5 (RESISTANT)): 1; RSIST-ANCE (CEM/C2 (RESISTANT)): 0.75; IC50 (CEM/C2 (RESISTANT)): 3 nM |
